This assay has as its target T1, Human DNMT1 (Homo sapiens, UniProt P26358).
T1 construct: a-a 2-1632, with N-terminal GST tag; GST (N)
The assay can be described thus: DNMT1 enzymatic activity inhibition, radioisotope-based 3H-SAM filter binding assay. It counts as biochemical. As to conditions: 1 μM SAM, 25 nM DNMT1, 0.005 mg/ml Poly(dI-dC), 30° C. 1 hour, 10-dose. As for the experimental part:
The inhibition of the enzymatic activity of DNMT1 was tested using low volume radioisotope-based assay which uses tritium-labeled AdoMet (^3H-SAM) as a methyl donor. Inhibitors diluted in DMSO were added by using acoustic technology (Echo550, Labcyte Inc. Sunnyvale, Calif.) into enzyme/substrate mixture in nano-liter range. The reaction was initiated by the addition of ^3H-SAM, and incubated at 30° C. for 1 hour. Total final methylations on the substrate poly(dI-dC) were detected by a filter binding approach. Data analysis was performed using GraphPad Prism software (La Jolla, Calif.) for IC50 curve fits.

Results on 15 compounds are retold here after US20150336889A1, “INDOLE DERIVATIVES, PHARMACEUTICAL COMPOSITIONS CONTAINING SUCH INDOLES AND THEIR USE AS DNA METHYLATION MODULATORS” (IKERCHEM, S.L., priority 2012, published 2015).

Each structure is given as a SMILES string. Structures can show the parent of a compound that is named as a salt.

T1 sequence (P26358 2-1632 isoform P26358-2): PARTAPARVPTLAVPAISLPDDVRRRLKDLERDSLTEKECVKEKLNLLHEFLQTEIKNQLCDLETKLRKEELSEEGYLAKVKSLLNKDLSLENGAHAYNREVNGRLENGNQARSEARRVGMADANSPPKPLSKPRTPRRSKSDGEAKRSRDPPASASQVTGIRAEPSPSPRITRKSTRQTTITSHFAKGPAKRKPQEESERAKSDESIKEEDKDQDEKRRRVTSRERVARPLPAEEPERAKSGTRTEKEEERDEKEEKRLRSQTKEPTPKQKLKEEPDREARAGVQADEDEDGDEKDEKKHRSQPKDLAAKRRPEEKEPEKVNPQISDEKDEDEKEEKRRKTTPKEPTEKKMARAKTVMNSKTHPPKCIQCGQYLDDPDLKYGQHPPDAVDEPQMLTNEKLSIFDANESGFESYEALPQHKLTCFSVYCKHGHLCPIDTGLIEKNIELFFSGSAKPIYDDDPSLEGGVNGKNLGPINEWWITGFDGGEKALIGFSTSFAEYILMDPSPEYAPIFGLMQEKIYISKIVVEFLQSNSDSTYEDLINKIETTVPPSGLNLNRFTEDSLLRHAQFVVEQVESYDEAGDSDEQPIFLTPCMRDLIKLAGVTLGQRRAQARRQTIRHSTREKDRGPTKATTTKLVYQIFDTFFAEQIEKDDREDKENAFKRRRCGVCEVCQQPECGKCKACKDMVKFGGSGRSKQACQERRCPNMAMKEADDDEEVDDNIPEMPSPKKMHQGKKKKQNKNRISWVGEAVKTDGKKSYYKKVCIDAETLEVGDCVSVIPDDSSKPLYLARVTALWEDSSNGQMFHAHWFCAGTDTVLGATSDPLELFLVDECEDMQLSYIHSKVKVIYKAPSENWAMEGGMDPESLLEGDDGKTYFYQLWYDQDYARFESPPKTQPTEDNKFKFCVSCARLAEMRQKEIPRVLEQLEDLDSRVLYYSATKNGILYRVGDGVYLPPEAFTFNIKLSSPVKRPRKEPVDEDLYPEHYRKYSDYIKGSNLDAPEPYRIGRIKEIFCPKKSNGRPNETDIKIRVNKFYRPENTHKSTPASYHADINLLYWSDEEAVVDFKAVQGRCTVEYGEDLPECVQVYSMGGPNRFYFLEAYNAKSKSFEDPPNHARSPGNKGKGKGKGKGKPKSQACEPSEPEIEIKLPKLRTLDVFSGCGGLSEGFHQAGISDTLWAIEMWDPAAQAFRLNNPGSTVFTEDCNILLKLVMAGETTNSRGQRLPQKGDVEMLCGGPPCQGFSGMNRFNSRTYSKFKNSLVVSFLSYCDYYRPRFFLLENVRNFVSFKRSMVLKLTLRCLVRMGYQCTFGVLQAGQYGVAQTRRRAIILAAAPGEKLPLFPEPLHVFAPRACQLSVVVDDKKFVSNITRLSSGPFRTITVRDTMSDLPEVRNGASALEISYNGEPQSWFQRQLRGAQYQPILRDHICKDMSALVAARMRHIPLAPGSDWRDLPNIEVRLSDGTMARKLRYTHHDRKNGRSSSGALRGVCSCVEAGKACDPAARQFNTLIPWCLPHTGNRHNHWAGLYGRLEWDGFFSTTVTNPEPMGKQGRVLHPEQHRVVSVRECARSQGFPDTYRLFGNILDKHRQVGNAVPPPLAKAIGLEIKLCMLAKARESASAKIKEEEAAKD

In general, IC50 refers to the concentration needed to halve the response being measured. A lower IC50 goes with higher potency. In the case of `COc1ccc(OC)c2c1c(-c1ccc(O)cc1)cn2CC(=O)c1ccc(O)cc1` [Example 13, 1-(4-hydroxyphenyl)-2-[3-(4-hydroxyphenyl)-4,7-dimethoxy-1H-indol-1-yl]ethanone], the IC50 worked out at 98.4 µM.

`COc1cc(OC)c2c(-c3cc(O)cc(O)c3)cn(CC(=O)c3cc(O)cc(O)c3)c2c1` [Example 10, 1-(3,5-dihydroxyphenyl)-2-[3-(3,5-dihydroxyphenyl)-4,6-dimethoxy-1H-indol-1-yl]ethanone] returned an IC50 of 44.6 µM.

Turning to `COc1cc2c(-c3ccc(O)cc3)cn(CC(=O)c3ccc(O)cc3)c2cc1OC` [Example 14, 1-(4-hydroxyphenyl)-2-[3-(4-hydroxyphenyl)-5,6-dimethoxy-1H-indol-1-yl]ethanone], the IC50 was 43.3 µM.

`O=C(Cn1cc(-c2ccc(O)cc2)c2cc(O)ccc21)c1ccc(O)cc1` [Example 18, 2-[5-hydroxy-3-(4-hydroxyphenyl)-1H-indol-1-yl]-1-(4-hydroxyphenyl) ethanone]: the IC50 was 32.9 µM.

For the compound `COc1cc(OC)c2c(-c3ccc(F)cc3)cn(CC(=O)c3ccc(F)cc3)c2c1` [Example 12, 1-(4-fluorophenyl)-2-[3-(4-fluorophenyl)-4,6-dimethoxy-1H-indol-1-yl]ethanone], the IC50 was 104 µM.

In turn, `COc1cc2c(cc1O)c(-c1ccc(O)cc1)cn2CC(=O)c1ccc(O)cc1` [Example 15, 2-[5-hydroxy-3-(4-hydroxyphenyl)-6-methoxy-1H-indol-1-yl]-1-(4-hydroxyphenyl)ethanone] registered an IC50 of 576 µM.

Turning to `O=C(Cn1cc(-c2ccc(O)cc2)c2cc(F)ccc21)c1ccc(O)cc1` [Example 19, 2-[5-fluoro-3-(4-hydroxyphenyl)-1H-indol-1-yl]-1-(4-hydroxyphenyl) ethanone], the IC50 stood at 59.1 µM.

Turning to `COc1cc(OC)c2c(-c3ccc(O)cc3)cn(C/C(=N\O)c3ccc(O)cc3)c2c1` [Example 22, (Z)-1-(4-hydroxyphenyl)-2-[3-(4-hydroxyphenyl)-4,6-dimethoxy-1H-indol-1-yl]ethanone oxime], the IC50 came to 22.5 µM.

As for `COc1ccc2c(-c3ccc(O)cc3)cn(CC(=O)c3ccc(O)cc3)c2c1` [Example 1, 1-(4-hydroxyphenyl)-2-[3-(4-hydroxyphenyl)-6-methoxy-1H-indol-1-yl]ethanone], the IC50 was determined as 73.1 µM.

Compound `COc1cc(OC)c2c(-c3ccccc3O)cn(CC(=O)c3ccccc3O)c2c1` [Example 7, 1-(2-hydroxyphenyl)-2-[3-(2-hydroxyphenyl)-4,6-dimethoxy-1H-indol-1-yl]ethanone] returned an IC50 of 32.9 µM.

For `COc1ccc2c(-c3ccccc3O)cn(CC(=O)c3ccccc3O)c2c1` [Example 3, 1-(2-hydroxyphenyl)-2-[3-(2-hydroxyphenyl)-6-methoxy-1H-indol-1-yl]ethanone], the IC50 was found to be 56.7 µM.

For the compound `COc1cc(OC)c2c(-c3ccc(O)cc3)cn(C/C(=N/O)c3ccc(O)cc3)c2c1` [Example 21, (E)-1-(4-Hydroxyphenyl)-2-[3-(4-hydroxyphenyl)-4,6-dimethoxy-1H-indol-1-yl]ethanone oxime], the IC50 amounted to 104 µM.

The compound `COc1ccc2c(-c3ccc(O)cc3)cn(CC(=O)c3ccc(O)cc3)c2c1` [Example 25, potassium phenoxide salt of 1-(4-hydroxyphenyl)-2-[3-(4-hydroxyphenyl)-6-methoxy-1H-indol-1-yl]ethanone] had an IC50 of 19.5 µM.

As for `COc1cc(OC)c2c(-c3ccc(O)cc3)cn(CC(=O)c3ccc(O)cc3)c2c1` [Example 27, calcium phenoxide salt of 1-(4-hydroxyphenyl)-2-[3-(4-hydroxyphenyl)-4,6-dimethoxy-1H-indol-1-yl]ethanone], the IC50 came to 46.8 µM.

`COc1cc(OC)c2c(-c3ccc(O)cc3O)cn(CC(=O)c3ccc(O)cc3O)c2c1` [Example 9, 1-(2,4-dihydroxyphenyl)-2-[3-(2,4-dihydroxyphenyl)-4,6-dimethoxy-1H-indol-1-yl]ethanone] had an IC50 of 181 µM.
